# Test results reported in patent US20200216439A1, “HETERO-1,5,6,7-TETRAHYDRO-4H-INDOL-4-ONES” (BAYER PHARMA AKTIENGESELLSCHAFT, priority 2015, published 2020).
# Biological target: T1, catalytic domain of human Bub1 (amino acids 704-1085) (Homo sapiens, UniProt O43683)
# T1 construct: catalytic domain of human Bub1 (amino acids 704-1085); His6 (N); made in house; host or cells: Hi5 insect cells
# Assay: Bub1 kinase assay (TR-FRET)
# Type: biochemical
# Conditions: not given
# Outline: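 Eleven concentrations (0.1 nM–20 μM, duplicate) fitted by 4-parameter logistic for IC50. Read-out: EDTA-stopped TR-FRET (665/620 nm) detecting anti-phosphoserine binding to biotin-peptide (1 μM). Reaction used 10 μM ATP, 60 min at 22 °C, after 15 min compound preincubation with His-tagged human Bub1 704-1085.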
# T1 sequence (O43683 704-1085): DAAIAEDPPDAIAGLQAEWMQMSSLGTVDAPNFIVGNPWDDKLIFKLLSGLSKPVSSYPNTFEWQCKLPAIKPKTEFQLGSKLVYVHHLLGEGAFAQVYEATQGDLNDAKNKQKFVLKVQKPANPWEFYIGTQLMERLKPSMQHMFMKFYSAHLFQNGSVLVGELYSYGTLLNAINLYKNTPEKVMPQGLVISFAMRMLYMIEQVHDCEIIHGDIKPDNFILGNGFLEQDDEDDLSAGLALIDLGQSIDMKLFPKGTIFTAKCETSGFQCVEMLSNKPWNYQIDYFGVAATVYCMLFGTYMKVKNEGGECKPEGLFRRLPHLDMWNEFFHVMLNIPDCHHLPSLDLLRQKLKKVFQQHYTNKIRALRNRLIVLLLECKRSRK
row,SMILES,IC50 [µM]
1,"COc1cc(C(=O)Nc2cc(-c3[nH]c4c(c3Nc3ccccc3)C(=O)CN(C(=O)N3CCOCC3)C4)ccn2)ccc1F [Example 260, 4-Fluoro-3-methoxy-N-4-[6-(morpholin-4-ylcarbonyl)-4-oxo-3(phenylamino)-4,5,6,7-tetrahydro-1H-pyrrolo[2,3-c]pyridin-2-yl]pyridin-2-ylbenzamide]",0.008

# Same assay, conditions: TR-FRET; ATP 10 μM, peptide substrate 1 μM; 60 min at 22° C.; average or median if tested more than once; read-out: Inhibition of Bub1 kinase IC50
row,SMILES,IC50 [µM]
1,"CN1CCN(C(=O)N2CC(=O)c3c([nH]c(-c4ccncc4OCC4CC4)c3Nc3ccccc3)C2)CC1 [Example 252, 2-[3-(Cyclopropylmethoxy)pyridin-4-yl]-6-[(4-methylpiperazin-1-yl)carbonyl]-3-(phenylamino)-1,5,6,7-tetrahydro-4H-pyrrolo[2,3-c]pyridin-4-one]",0.048
2,"COc1cc(C(=O)Nc2cc(-c3[nH]c4c(c3Nc3ccccc3)C(=O)CN(C(=O)OC(C)(C)C)C4)ccn2)ccc1F [Example 253, tert-butyl 2-2-[(4-fluoro-3-methoxybenzoyl)amino]pyridin-4-yl-4-oxo-3-(phenylamino)-1,4,5,7-tetrahydro-6H-pyrrolo[2,3-c]pyridine-6-carboxylate]",0.042
3,"CC(=O)Nc1cc(-c2[nH]c3c(c2Nc2ccccc2)C(=O)CN(S(=O)(=O)N(C)C)C3)ccn1 [Example 254, N-4-[6(Dimethylsulfamoyl)-4-oxo-3-(phenylamino)-4,5,6,7-tetrahydro-1H-pyrrolo[2,3-c]pyridin-2-yl]pyridin-2-ylacetamide]",0.004
4,"CC(=O)Nc1cc(-c2[nH]c3c(c2Nc2ccccc2)C(=O)CN(C(=O)N2C[C@@H](C)O[C@@H](C)C2)C3)ccn1 [Example 255, N-4-[6-[(2R,6S)-2,6-Dimethylmorpholin-4-yl]carbonyl-4-oxo-3-(phenylamino)-4,5,6,7-tetrahydro-1H-pyrrolo[2,3-c]pyridin-2-yl]pyridin-2-ylacetamide]",0.375
5,"COc1cc(C(=O)Nc2cc(-c3c(Nc4ccccc4)c4c(n3C)CN(C(=O)OC(C)(C)C)CC4=O)ccn2)ccc1F [Example 256, tert-Butyl 2-2-[(4-fluoro-3-methoxybenzoyl)amino]pyridin-4-yl-1-methyl-4-oxo-3-(phenylamino)-1,4,5,7-tetrahydro-6H-pyrrolo[2,3-c]pyridine-6-carboxylate]",0.936
6,COc1cc(C(=O)Nc2cc(-c3[nH]c4c(c3Nc3ccccc3)C(=O)CNC4)ccn2)ccc1F [Example 257],0.035
7,COc1cc(C(=O)Nc2cc(-c3[nH]c4c(c3Nc3ccccc3)C(=O)CN(C(C)=O)C4)ccn2)ccc1F [Example 258],0.01
8,"COc1cc(C(=O)Nc2cc(-c3[nH]c4c(c3Nc3ccccc3)C(=O)CN(S(=O)(=O)N(C)C)C4)ccn2)ccc1F [Example 259, N-4-[6-(Dimethylsulfamoyl)-4-oxo-3-(phenylamino)-4,5,6,7-tetrahydro-1H-pyrrolo[2,3-c]pyridin-2-yl]pyridin-2-yl-4-fluoro-3-methoxybenzamide]",0.003
9,"COc1cc(C(=O)Nc2cc(-c3[nH]c4c(c3Nc3ccccc3)C(=O)CN(C(=O)N3C[C@@H](C)O[C@@H](C)C3)C4)ccn2)ccc1F [Example 261, N-4-[6-[(2R,6S)-2,6-Dimethylmorpholin-4-yl]carbonyl-4-oxo-3-(phenylamino)-4,5,6,7-tetrahydro-1H-pyrrolo[2,3-c]pyridin-2-yl]pyridin-2-yl-4-fluoro-3-methoxybenzamide]",0.351
10,"COc1cc(C(=O)Nc2cc(-c3[nH]c4c(c3Nc3ccccc3)C(=O)CN(C(=O)N3CCCC3)C4)ccn2)ccc1F [Example 262, 4-Fluoro-3-methoxy-N-4-[4-oxo-3-(phenylamino)-6-(pyrrolidin-1-ylcarbonyl)-4,5,6,7-tetrahydro-1H-pyrrolo[2,3-c]pyridin-2-yl]pyridin-2-ylbenzamide]",0.008
11,"Cc1cc(F)ccc1C(=O)Nc1cc(-c2[nH]c3c(c2Nc2ccccc2)C(=O)CN(C(=O)OC(C)(C)C)C3)ccn1 [Example 263, tert-Butyl 2-2-[(4-fluoro-2-methylbenzoyl)amino]pyridin-4-yl-4-oxo-3-(phenylamino)-1,4,5,7-tetrahydro-6H-pyrrolo[2,3-c]pyridine-6-carboxylate]",0.038
12,"Cc1cc(F)ccc1C(=O)Nc1cc(-c2[nH]c3c(c2Nc2ccccc2)C(=O)CNC3)ccn1 [Example 264, 4-Fluoro-2-methyl-N-4-[4-oxo-3-(phenylamino)-4,5,6,7-tetrahydro-1H-pyrrolo[2,3-c]pyridin-2-yl]pyridin-2-ylbenzamide]",0.081
13,"CC(=O)N1CC(=O)c2c([nH]c(-c3ccnc(NC(=O)c4ccc(F)cc4C)c3)c2Nc2ccccc2)C1 [Example 265, N-4-[6-Acetyl-4-oxo-3-(phenylamino)-4,5,6,7-tetrahydro-1H-pyrrolo[2,3-c]pyridin-2-yl]pyridin-2-yl-4-fluoro-2-methylbenzamide]",0.006
14,"COc1ccc(C(=O)Nc2cc(-c3[nH]c4c(c3Nc3ccccc3)C(=O)CN(C(=O)OC(C)(C)C)C4)ccn2)c(C)c1 [Example 266, tert-Butyl 2-2-[(4-methoxy-2-methylbenzoyl)amino]pyridin-4-yl-4-oxo-3-(phenylamino)-1,4,5,7-tetrahydro-6H-pyrrolo[2,3-c]pyridine-6-carboxylate]",0.072
15,"Cc1ccc(F)cc1C(=O)Nc1cc(-c2[nH]c3c(c2Nc2ccccc2)C(=O)CN(C(=O)OC(C)(C)C)C3)ccn1 [Example 268, tert-Butyl 2-2-[(5-fluoro-2-methylbenzoyl)amino]pyridin-4-yl-4-oxo-3-(phenylamino)-1,4,5,7-tetrahydro-6H-pyrrolo[2,3-c]pyridine-6-carboxylate]",0.058
16,"Cc1ccc(F)cc1C(=O)Nc1cc(-c2[nH]c3c(c2Nc2ccccc2)C(=O)CNC3)ccn1 [Example 269, 5-Fluoro-2-methyl-N-4-[4-oxo-3-(phenylamino)-4,5,6,7-tetrahydro-1H-pyrrolo[2,3-c]pyridin-2-yl]pyridin-2-ylbenzamide]",0.149
17,"COc1ccc(C(=O)Nc2cc(-c3[nH]c4c(c3Nc3ccccc3)C(=O)CN(C(=O)OC(C)(C)C)C4)ccn2)cc1 [Example 270, tert-Butyl 2-2-[(4-methoxybenzoyl)amino]pyridin-4-yl-4-oxo-3-(phenylamino)-1,4,5,7-tetrahydro-6H-pyrrolo[2,3-c]pyridine-6-carboxylate]",0.037
18,"CC(=O)N1CC(=O)c2c([nH]c(-c3ccnc(NC(=O)c4ccc(F)cc4)c3)c2Nc2ccccc2)C1 [Example 271, N-4-[6-Acetyl-4-oxo-3-(phenylamino)-4,5,6,7-tetrahydro-1H-pyrrolo[2,3-c]pyridin-2-yl]pyridin-2-yl-4-fluorobenzamide]",0.005
19,"CN(C)S(=O)(=O)N1CC(=O)c2c([nH]c(-c3ccnc(NC(=O)[C@@H]4C[C@@H]4F)c3)c2Nc2ccccc2)C1 [Example 272, (1S,2S)—N-4-[6-(Dimethylsulfamoyl)-4-oxo-3-(phenylamino)-4,5,6,7-tetrahydro-1H-pyrrolo[2,3-c]pyridin-2-yl]pyridin-2-yl-2-fluorocyclopropanecarboxamide]",0.004
20,"CN(C)S(=O)(=O)N1CC(=O)c2c([nH]c(-c3ccnc(NC(=O)C4(F)CC4)c3)c2Nc2ccccc2)C1 [Example 273, N-4-[6-(Dimethylsulfamoyl)-4-oxo-3-(phenylamino)-4,5,6,7-tetrahydro-1H-pyrrolo[2,3-c]pyridin-2-yl]pyridin-2-yl-1-fluorocyclopropanecarboxamide]",0.011
21,"CC(C)(C)OC(=O)N1CC(=O)c2c([nH]c(-c3ccnc(NC(=O)c4cnn[nH]4)c3)c2Nc2ccccc2)C1 [Example 274, tert-Butyl 4-oxo-3-(phenylamino)-2-2-[(1H-1,2,3-triazol-5-ylcarbonyl)amino]pyridin-4-yl-1,4,5,7-tetrahydro-6H-pyrrolo[2,3-c]pyridine-6-carboxylate]",0.01
22,"O=C(Nc1cc(-c2[nH]c3c(c2Nc2ccccc2)C(=O)CNC3)ccn1)c1cnn[nH]1 [Example 275, N-4-[4-Oxo-3-(phenylamino)-4,5,6,7-tetrahydro-1H-pyrrolo[2,3-c]pyridin-2-yl]pyridin-2-yl-1H-1,2,3-triazole-5-carboxamide]",0.113
23,"CN(C)CCOc1cnccc1-c1[nH]c2c(c1Nc1ccccc1)C(=O)CN(C(=O)OC(C)(C)C)C2 [Example 276, tert-Butyl 2-3-[2-(dimethylamino)ethoxy]pyridin-4-yl-4-oxo-3-(phenylamino)-1,4,5,7-tetrahydro-6H-pyrrolo[2,3-c]pyridine-6-carboxylate]",0.007
24,"CN(C)CCOc1cnccc1-c1[nH]c2c(c1Nc1ccccc1)C(=O)CNC2 [Example 277, 2-3-[2-(Dimethylamino)ethoxy]pyridin-4-yl-3-(phenylamino)-1,5,6,7-tetrahydro-4H-pyrrolo[2,3-c]pyridin-4-one]",0.102
25,"CC(=O)N1CC(=O)c2c([nH]c(-c3ccncc3OCCN(C)C)c2Nc2ccccc2)C1 [Example 278, 6-Acetyl-2-3-[2-(dimethylamino)ethoxy]pyridin-4-yl-3-(phenylamino)-1,5,6,7-tetrahydro-4H-pyrrolo[2,3-c]pyridin-4-one]",0.023
26,"CN(C)CCOc1cnccc1-c1[nH]c2c(c1Nc1ccccc1)C(=O)CN(S(=O)(=O)N(C)C)C2 [Example 279, 2-3-[2-(Dimethylamino)ethoxy]pyridin-4-yl-N,N-dimethyl-4-oxo-3-(phenylamino)-1,4,5,7-tetrahydro-6H-pyrrolo[2,3-c]pyridine-6-sulfonamide]",0.006
27,"COCCOc1cnccc1-c1[nH]c2c(c1Nc1ccccc1)C(=O)CN(S(=O)(=O)N(C)C)C2 [Example 280, 2-[3-(2-Methoxyethoxy)pyridin-4-yl]-N,N-dimethyl-4-oxo-3-(phenylamino)-1,4,5,7-tetrahydro-6H-pyrrolo[2,3-c]pyridine-6-sulfonamide]",0.006
